Consider 1 molecule from patent publication US20240197726A1, “NOVEL TETRAHYDROISOQUINOLINE ALKALOID COMPOUND CONTAINING MACROCYCLE” (THE UNIVERSITY OF TOKYO, priority 2021, published 2024).

The structures appear in SMILES notation.

Assay type in all cases: cell-based
The subject of test [1] is MKN1 gastric cancer cells. The test is described as follows: antitumor activity, sulforhodamine B cell growth assay, MKN1. As to conditions: Homo sapiens, MKN-1; MKN1, drug exposure 48 hours; read-out: GI50 value: 50% growth inhibitory concentration. The method, then:
(§1) The THIQ compound containing a macrocyclic structure of the present invention was administered to various cancer cell lines, and the antitumor activity (Go value) was observed. Specifically, verification was performed according to the literature (Yamori, T.; Matsunaga, A.; Sato, S.; Yamazaki, K.; Komi, A.; Ishizu, K. et al. Cancer Res. 1999, 59, 4042) by the following procedure.
(§2) Cells were plated at an appropriate density in a 96-well plate in RPMI 1640 together with 5% fetal bovine serum, and adhered overnight. The cells were exposed to a drug for 48 hours. Then, according to the sulforhodamine B assay described by Skehan et al (Skehan P., Storeng R., Scudiero D., Monks A., McMahon J., Vistica D., Warren J. T., Bokesch H., Kenney S., Boyd M. R. J Natl. Cancer Inst, 1990, 82, 1107-1112), the cell growth rate was measured. The absorbance of the control well (C) and the test well (T) was measured at 525 nm. In addition, the time at which the drug was added was set as time 0, and the absorbance for the test well (T0) was measured. Using these measured values, the cell growth inhibitory effect (% growth=PG) was calculated by the following formula at each concentration of the drug.
(§3) (T<T0): PG=100×[(T−T0)/T]
(§4) The PG values determined above for each cell line were plotted against the concentration (logarithm) on a semi-logarithmic graph, and summarized for each visceral cancer. Concentrations at which the dose-response curve of each cell line crossed the horizontal line of PG=50%, 0%, or −50% were calculated. These concentrations were defined as Log GI50, Log TGI, and Log LC50. Actually, using two data points of the drug concentration before and after crossing each horizontal line, the drug concentration (logarithmic value) at the intersection of the straight line connecting the two points and the horizontal line for each PG was calculated.

Test [2] has as its system RXF-631L kidney cancer cells. The test is described as follows: antitumor activity, sulforhodamine B cell growth assay, RXF-631L. To be noted: RXF-631L, drug exposure 48 hours; read-out: GI50 value: 50% growth inhibitory concentration. How it is done:
as §1, §2, §3, §4

Another test relates to OVCAR-8 cancer cells. The test is described as follows: antitumor activity, sulforhodamine B cell growth assay, OVCAR-8. To be noted: Homo sapiens; OVCAR-8, drug exposure 48 hours; read-out: GI50 value: 50% growth inhibitory concentration. How it is done: as §1, §2, §3, §4
For test [3], the system named is BSY-1 breast cancer cells. The test is described as follows: antitumor activity, sulforhodamine B cell growth assay, BSY-1. As to conditions: BSY-1, drug exposure 48 hours; read-out: GI50 value: 50% growth inhibitory concentration. How it is done: as §1, §2, §3, §4
A further test has as its system OVCAR-3 cancer cells. The experiment in a line: antitumor activity, sulforhodamine B cell growth assay, OVCAR-3. To be noted: Homo sapiens; OVCAR-3, drug exposure 48 hours; read-out: GI50 value: 50% growth inhibitory concentration. The method, then:
as §1, §2, §3, §4

For test [4], the system named is NCI-H460 lung cancer cells. The test is described as follows: antitumor activity, sulforhodamine B cell growth assay, NCI-H460. As to conditions: Homo sapiens; NCI-H460, drug exposure 48 hours; read-out: GI50 value: 50% growth inhibitory concentration. The method, then: as §1, §2, §3, §4
In test [5] the test system is St-4 gastric cancer cells. The test is described as follows: antitumor activity, sulforhodamine B cell growth assay, St-4. As to conditions: St-4 (SI-4 in Tables 2-11), drug exposure 48 hours; read-out: GI50 value: 50% growth inhibitory concentration. How it is done:
as §1, §2, §3, §4

Test [6] deals with KM-12 colorectal cancer cells. The experiment in a line: antitumor activity, sulforhodamine B cell growth assay, KM-12. To be noted: Homo sapiens, KM12; KM-12, drug exposure 48 hours; read-out: GI50 value: 50% growth inhibitory concentration. The method, then: as §1, §2, §3, §4
Test [7] concerns various cancer cell lines. The experiment in a line: Verification of antitumor activity, whole panel of cancer cell lines. To be noted: in words, compared with Cyanosafracin B. The method, then: as §1, §2, §3, §4
Test [8] concerns HCC2998 colorectal cancer cells. The test is described as follows: antitumor activity, sulforhodamine B cell growth assay, HCC2998. As to conditions: Homo sapiens, HCC 2998; HCC2998, drug exposure 48 hours; read-out: GI50 value: 50% growth inhibitory concentration. The method, then:
as §1, §2, §3, §4

The test system of test [9] is MKN-B gastric cancer cells. The experiment in a line: antitumor activity, sulforhodamine B cell growth assay, MKN-B. To be noted: MKN-B, drug exposure 48 hours; read-out: GI50 value: 50% growth inhibitory concentration. How it is done:
as §1, §2, §3, §4

Test [10] concerns SNB-78 central nervous system cancer cells. The experiment in a line: antitumor activity, sulforhodamine B cell growth assay, SNB-78. To be noted: Homo sapiens; SNB-78, drug exposure 48 hours; read-out: GI50 value: 50% growth inhibitory concentration. The method, then: as §1, §2, §3, §4
In another test the test system is DMS114 lung cancer cells. The test is described as follows: antitumor activity, sulforhodamine B cell growth assay, DMS114. To be noted: Homo sapiens, DMS-114; DMS114, drug exposure 48 hours; read-out: GI50 value: 50% growth inhibitory concentration. How it is done:
as §1, §2, §3, §4

Test [11] relates to MDA-MB-231 breast cancer cells. The test is described as follows: antitumor activity, sulforhodamine B cell growth assay, MDA-MB-231. To be noted: Homo sapiens; MDA-MB-231, drug exposure 48 hours; read-out: GI50 value: 50% growth inhibitory concentration. How it is done: as §1, §2, §3, §4
The test system of test [12] is NCI-H226 lung cancer cells. The test is described as follows: antitumor activity, sulforhodamine B cell growth assay, NCI-H226. To be noted: Homo sapiens; NCI-H226, drug exposure 48 hours; read-out: GI50 value: 50% growth inhibitory concentration. How it is done: as §1, §2, §3, §4
In test [13] the test system is OVCAR-5 cervical cancer cells. The test is described as follows: antitumor activity, sulforhodamine B cell growth assay, OVCAR-5. As to conditions: Homo sapiens; OVCAR-5, drug exposure 48 hours; read-out: GI50 value: 50% growth inhibitory concentration. The method, then: as §1, §2, §3, §4
The subject of test [14] is SF-295 central nervous system cancer cells. The experiment in a line: antitumor activity, sulforhodamine B cell growth assay, SF-295. To be noted: Homo sapiens; SF-295, drug exposure 48 hours; read-out: GI50 value: 50% growth inhibitory concentration. The method, then:
as §1, §2, §3, §4

Another test deals with A549 lung cancer cells. The experiment in a line: antitumor activity, sulforhodamine B cell growth assay, A549. As to conditions: Homo sapiens; A549, drug exposure 48 hours; read-out: GI50 value: 50% growth inhibitory concentration. How it is done: as §1, §2, §3, §4
Test [15] relates to SNB-75 central nervous system cancer cells. The experiment in a line: antitumor activity, sulforhodamine B cell growth assay, SNB-75. To be noted: Homo sapiens; SNB-75, drug exposure 48 hours; read-out: GI50 value: 50% growth inhibitory concentration. The method, then:
as §1, §2, §3, §4

The subject of test [16] is HBC-4 breast cancer cells. The experiment in a line: antitumor activity, sulforhodamine B cell growth assay, HBC-4. As to conditions: HBC4; HBC-4, drug exposure 48 hours; read-out: GI50 value: 50% growth inhibitory concentration. How it is done: as §1, §2, §3, §4
Test [17] has as its system MCF-7 breast cancer cells. The test is described as follows: antitumor activity, sulforhodamine B cell growth assay, MCF-7. As to conditions: Homo sapiens, MCF7; MCF-7, drug exposure 48 hours; read-out: GI50 value: 50% growth inhibitory concentration. How it is done:
as §1, §2, §3, §4

Test [18] has as its system HCT-116 colorectal cancer cells. The experiment in a line: antitumor activity, sulforhodamine B cell growth assay, HCT-116. As to conditions: Homo sapiens; HCT-116, drug exposure 48 hours; read-out: GI50 value: 50% growth inhibitory concentration. The method, then: as §1, §2, §3, §4

Take `COc1c(C)cc2c(c1O)[C@@H]1[C@@H]3Cc4c5c(C)c6c(c4C(CNC(=O)[C@H](C)NC(=O)OCC4C=C(CO5)Cn5c(=O)n(-c7ccccc7)c(=O)n54)N3[C@@H](C#N)[C@H](C2)N1C)OCO6` [Compound 16]: the GI50 in test [1] worked out at 4.8 nM; in test [2], 35 nM; in the test with OVCAR-8 cancer cells, 21 nM; in test [3], 3.1 nM; in the test with OVCAR-3 cancer cells it was 6.4 nM; in test [4], 36 nM. The GI50 in test [5] came out at 37 nM; in test [6], 14 nM; in test [8], 17 nM; in test [9], 30 nM; in [10], 7.5 nM; with DMS114 lung cancer cells it was 3.8 nM. In addition, the GI50 in test [11] amounted to 6.7 nM; in test [12], 25 nM; in test [13], 31 nM; in [14], 29 nM; in the test with A549 lung cancer cells it was 51 nM; in test [15], 9.9 nM. The values for the GI50 in test [16], in test [17] and in test [18] were 5.2 nM, 4.4 nM and 9.3 nM, respectively. Further, in test [7], the antitumor activity entry is on record as “better antitumor activity than Cyanosafracin B”.
